#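 Briefly, cells in 96-well plates were exposed to five compound concentrations for 48 h, and endpoints were estimated by linear interpolation. The concentration for 50% growth inhibition is given as GI50. Definition used: TGI = concentration required for complete inhibition of growth.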
# Legend:
# Test in all cases: DTP human tumour cell line panel, 48 h
# IGROV1 ovarian = system: IGROV1 ovarian
# DU-145 prostate = system: DU-145 prostate
# SK-MEL-2 melanoma = system: SK-MEL-2 melanoma
# OVCAR-8 ovarian = system: OVCAR-8 ovarian
# COLO 205 colon = system: COLO 205 colon
# OVCAR-4 ovarian = system: OVCAR-4 ovarian
# K-562 leukemia = system: K-562 leukemia
# SN12C renal = system: SN12C renal
# HS 578T breast = system: HS 578T breast
# HOP-62 NSCLC = system: HOP-62 NSCLC
# NCI-H226 lung = system: NCI-H226 lung
# UACC-62 melanoma = system: UACC-62 melanoma
# SW-620 colon = system: SW-620 colon
# NCI/ADR-RES ovarian = system: NCI/ADR-RES ovarian
# SK-MEL-5 melanoma = system: SK-MEL-5 melanoma
# SF-268 CNS = system: SF-268 CNS
# NCI-H23 lung = system: NCI-H23 lung
# NCI-H522 lung = system: NCI-H522 lung
# 786-0 renal = system: 786-0 renal
# MDA-MB-435 = system: MDA-MB-435
# NCI-H460 lung = system: NCI-H460 lung
# HOP-92 NSCLC = system: HOP-92 NSCLC
# U251 CNS = system: U251 CNS
# CCRF-CEM leukemia = system: CCRF-CEM leukemia
# T-47D breast = system: T-47D breast
# UACC-257 melanoma = system: UACC-257 melanoma
# OVCAR-5 ovarian = system: OVCAR-5 ovarian
# SK-MEL-28 melanoma = system: SK-MEL-28 melanoma
# MDA-MB-231 breast = system: MDA-MB-231 breast
# EKVX NSCLC = system: EKVX NSCLC
# A498 renal = system: A498 renal
# ACHN renal = system: ACHN renal
# HL-60(TB) leukemia = system: HL-60(TB) leukemia
# SF-295 CNS = system: SF-295 CNS
# UO-31 renal = system: UO-31 renal
# BT-549 breast = system: BT-549 breast
# RXF 393 renal = system: RXF 393 renal
# PC-3 prostate = system: PC-3 prostate
# HCC-2998 colon = system: HCC-2998 colon
# RPMI-8226 leukemia = system: RPMI-8226 leukemia
# MCF7 breast = system: MCF7 breast
# SR leukemia = system: SR leukemia
# SNB-19 CNS = system: SNB-19 CNS
# LOX IMVI melanoma = system: LOX IMVI melanoma
# HCT-116 colon = system: HCT-116 colon
# KM12 colon = system: KM12 colon
# SF-539 CNS = system: SF-539 CNS
# HCT-15 colon = system: HCT-15 colon
# HT29 colon = system: HT29 colon
# SK-OV-3 ovarian = system: SK-OV-3 ovarian
# OVCAR-3 ovarian = system: OVCAR-3 ovarian
# SNB-75 CNS = system: SNB-75 CNS
# MALME-3M melanoma = system: MALME-3M melanoma
# A549 NSCLC = system: A549 NSCLC
# MOLT-4 leukemia = system: MOLT-4 leukemia
# M14 melanoma = system: M14 melanoma
smiles,measurement,setting,value
Clc1ccc(Nc2nnc(COc3ccccc3)c3ccccc23)cc1,GI50,IGROV1 ovarian,1.14 µM
same,TGI,IGROV1 ovarian,6.37 µM
same,GI50,DU-145 prostate,2.65 µM
same,TGI,DU-145 prostate,10.5 µM
same,GI50,SK-MEL-2 melanoma,0.971 µM
same,TGI,SK-MEL-2 melanoma,5.13 µM
same,GI50,OVCAR-8 ovarian,3.49 µM
same,TGI,OVCAR-8 ovarian,15 µM
same,GI50,COLO 205 colon,0.456 µM
same,TGI,COLO 205 colon,4.38 µM
same,GI50,OVCAR-4 ovarian,2.09 µM
same,TGI,OVCAR-4 ovarian,25 µM
same,GI50,K-562 leukemia,1.85 µM
same,TGI,K-562 leukemia,11.9 µM
same,GI50,SN12C renal,2.12 µM
same,TGI,SN12C renal,8.07 µM
same,GI50,HS 578T breast,2.58 µM
same,TGI,HS 578T breast,10.5 µM
same,GI50,HOP-62 NSCLC,2.51 µM
same,TGI,HOP-62 NSCLC,7.74 µM
same,GI50,NCI-H226 lung,1.56 µM
same,TGI,NCI-H226 lung,6.58 µM
same,GI50,UACC-62 melanoma,1.24 µM
same,TGI,UACC-62 melanoma,5.69 µM
same,GI50,SW-620 colon,2.86 µM
same,TGI,SW-620 colon,7.79 µM
same,GI50,NCI/ADR-RES ovarian,2.62 µM
same,TGI,NCI/ADR-RES ovarian,16.6 µM
same,GI50,SK-MEL-5 melanoma,1.08 µM
same,TGI,SK-MEL-5 melanoma,4.56 µM
same,GI50,SF-268 CNS,2.23 µM
same,TGI,SF-268 CNS,12.9 µM
same,GI50,NCI-H23 lung,1.56 µM
same,TGI,NCI-H23 lung,7.87 µM
same,GI50,NCI-H522 lung,0.354 µM
same,TGI,NCI-H522 lung,4.04 µM
same,GI50,786-0 renal,2.6 µM
same,TGI,786-0 renal,8.11 µM
same,GI50,MDA-MB-435,1.01 µM
same,TGI,MDA-MB-435,5.31 µM
same,GI50,NCI-H460 lung,2.7 µM
same,TGI,NCI-H460 lung,7.12 µM
same,GI50,HOP-92 NSCLC,0.331 µM
same,TGI,HOP-92 NSCLC,3.09 µM
same,GI50,U251 CNS,2.93 µM
same,TGI,U251 CNS,7.47 µM
same,GI50,CCRF-CEM leukemia,2.8 µM
same,TGI,CCRF-CEM leukemia,14.2 µM
same,GI50,T-47D breast,0.881 µM
same,TGI,T-47D breast,8.44 µM
same,GI50,UACC-257 melanoma,2.54 µM
same,TGI,UACC-257 melanoma,5.82 µM
same,GI50,OVCAR-5 ovarian,3.88 µM
same,TGI,OVCAR-5 ovarian,15.4 µM
same,GI50,SK-MEL-28 melanoma,2.84 µM
same,TGI,SK-MEL-28 melanoma,7.23 µM
same,GI50,MDA-MB-231 breast,1.28 µM
same,TGI,MDA-MB-231 breast,6.9 µM
same,GI50,EKVX NSCLC,0.679 µM
same,TGI,EKVX NSCLC,7.32 µM
same,GI50,A498 renal,0.686 µM
same,TGI,A498 renal,3.64 µM
same,GI50,ACHN renal,2.35 µM
same,TGI,ACHN renal,25 µM
same,GI50,HL-60(TB) leukemia,3.56 µM
same,TGI,HL-60(TB) leukemia,11.9 µM
same,GI50,SF-295 CNS,1.65 µM
same,TGI,SF-295 CNS,6.7 µM
same,GI50,UO-31 renal,0.727 µM
same,TGI,UO-31 renal,5.2 µM
same,GI50,BT-549 breast,2.05 µM
same,TGI,BT-549 breast,6.65 µM
same,GI50,RXF 393 renal,1.01 µM
same,TGI,RXF 393 renal,4.98 µM
same,GI50,PC-3 prostate,1.3 µM
same,TGI,PC-3 prostate,10.1 µM
same,GI50,HCC-2998 colon,3.81 µM
same,TGI,HCC-2998 colon,8.36 µM
same,GI50,RPMI-8226 leukemia,1.37 µM
same,TGI,RPMI-8226 leukemia,6.96 µM
same,GI50,MCF7 breast,1.18 µM
same,TGI,MCF7 breast,6.07 µM
same,GI50,SR leukemia,1.23 µM
same,TGI,SR leukemia,11.2 µM
same,GI50,SNB-19 CNS,3.2 µM
same,TGI,SNB-19 CNS,12 µM
same,GI50,LOX IMVI melanoma,1.29 µM
same,TGI,LOX IMVI melanoma,4.85 µM
same,GI50,HCT-116 colon,1.07 µM
same,TGI,HCT-116 colon,4.83 µM
same,GI50,KM12 colon,2.65 µM
same,TGI,KM12 colon,7.72 µM
same,GI50,SF-539 CNS,3.12 µM
same,TGI,SF-539 CNS,7.58 µM
same,GI50,HCT-15 colon,2.05 µM
same,TGI,HCT-15 colon,6.75 µM
same,GI50,HT29 colon,0.429 µM
same,TGI,HT29 colon,4.25 µM
same,GI50,SK-OV-3 ovarian,2.38 µM
same,TGI,SK-OV-3 ovarian,9.96 µM
same,GI50,OVCAR-3 ovarian,2.87 µM
same,TGI,OVCAR-3 ovarian,9.8 µM
same,GI50,SNB-75 CNS,0.498 µM
same,TGI,SNB-75 CNS,6.65 µM
same,GI50,MALME-3M melanoma,1.38 µM
same,TGI,MALME-3M melanoma,7.3 µM
same,GI50,A549 NSCLC,2.87 µM
same,TGI,A549 NSCLC,12.3 µM
same,GI50,MOLT-4 leukemia,1.06 µM
same,TGI,MOLT-4 leukemia,6.7 µM
same,GI50,M14 melanoma,0.918 µM
same,TGI,M14 melanoma,5.03 µM
